From patent US6583177B2, “Leukotriene B4 antagonist compounds and method for treatment” (Ono Pharmaceutical Co., Ltd., priority 1994, dated 2003)

Key:
[1] = biological target: T1, LTB4 receptor (Homo sapiens, UniProt Q15722); test: Binding inhibition against 3H-LTB4 on the human polymorphonuclear leukocyte (PMN); conditions: percentage of inhibition of specific 3H-LTB4 (4nM) binding to human PMN, 0° C. for 20 min; formula (IB) compounds, Table 18
T1 construct: The reaction was started by addition of a thoroughly mixed PMN cell suspension (1.6×10^6 cells); endogenous in cells; host or cells: human polymorphonuclear leukocytes (PMN), whole-cell suspension
T1 sequence (Q15722 whole entry): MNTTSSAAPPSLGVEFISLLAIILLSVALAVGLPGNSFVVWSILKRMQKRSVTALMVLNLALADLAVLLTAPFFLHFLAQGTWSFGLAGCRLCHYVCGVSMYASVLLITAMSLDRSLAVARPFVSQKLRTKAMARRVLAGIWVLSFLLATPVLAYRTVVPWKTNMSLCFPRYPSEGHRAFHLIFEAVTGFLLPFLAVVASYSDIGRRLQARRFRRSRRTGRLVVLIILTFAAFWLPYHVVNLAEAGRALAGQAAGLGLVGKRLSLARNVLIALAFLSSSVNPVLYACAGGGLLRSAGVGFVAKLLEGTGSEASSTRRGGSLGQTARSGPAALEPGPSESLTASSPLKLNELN
Method: Binding Inhibition Against ^3H-LTB4 on the Human Polymorphonuclear Leukocyte (PMN)
0.049 ml Hanks balanced salt solution (HBSS), 0.001 ml test compound and 0.05 ml ^3H-LTB4 (4nM) were added to polypropylene tubes and mixed. The reaction was started by addition of a thoroughly mixed PMN cell suspension (1.6×10^6 cells), followed by incubation at 0° C. for 20 min. The reaction was terminated by the addition of ice-cold HBSS (2.5 ml). PMNs were harvested by vacuum filtration through Whatman GF/C glass fiber filters on a Brandel cell harvester (BRANDEL, M-24R). The filters were then washed 2 times to remove free ^3H-LTB4 with 2.5 ml of the ice-cold PBS (−) solution. The filters were transferred to each vial, and equilibrated after adding 8 ml ACS II cocktail (Amersham). The radioactivity was measured by liquid scintillation counter (Aloka, LSC-5100).
Specific binding of ^3H-LTB4 to the LTB4 receptor was defined as total binding minus nonspecific binding. Nonspecific binding was the amount of ^3H-LTB4 binding in the presence of 1.5 μM LTB4 instead of the test compound. The inhibitory effect of test compound was calculated from the following equation.
The percentage of inhibition (%)=100−(B1/B0×100)
B1: Specific ^3H-LTB4 binding in presence of test compound
B0: Specific ^3H-LTB4 binding in absence of test compound
The compounds of the formula (IB), of the present invention have an antagonistic activity on LTB4. The results which are measured by method as hereinbefore described in Example 1(A), are shown the following Table 18.

[2] = biological target: T2, PLA2 (derived from hog pancreas) (Sus scrofa, UniProt P00592); test: Inhibitory activity on PLA2; format: biochemical; conditions: hog pancreas PLA2, 10PY-PC substrate, fluorescence, pH7.5
T2 construct: a solution of 10 mU/ml PLA2 (derived from hog pancreas) (50 μl); from tissue; host or cells: hog pancreas
T2 sequence (P00592 23-146): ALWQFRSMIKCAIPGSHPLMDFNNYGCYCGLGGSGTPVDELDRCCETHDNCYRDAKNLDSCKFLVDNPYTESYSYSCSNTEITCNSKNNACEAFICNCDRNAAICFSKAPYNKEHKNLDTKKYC
Method: (1) Inhibitory Activity on PLA2
A reaction solution including 50 mM tris-HCl buffer (pH7.5, 874 μl; containing 100 mM sodium chloride, 1 mM EDTA), 1M calciumchloride (6 μl), 1% bovine serum albumin (10 μl) and 2.5 mM 10PY-PC (10 μl), was prepared. To the solution were added a test compound in various concentration or water (50 μl), and a solution of 10 mU/ml PLA2 (derived from hog pancreas) (50 μl). The appearance of fluorescence was measured (Ex=345 nm, Em=396 nm). Percentage (%) of the strength of fluorescence in the presence of a test compound was calculated when the strength of that in the absence thereof was regarded as 100%, and therefrom IC50 value was calculated.
10PY-PC represents 3′-palmitoyl-2-(1-pyrenedecanoyl)-L-α-phosphatidylcholine, […]

[3] = biological target: T3, trypsin (derived from bovine pancreas) (Bos taurus, UniProt P00760); test: Inhibitory activity on trypsin; format: biochemical; conditions: bovine pancreas trypsin, BAPNA substrate, 30° C., pH 8.0; read-out: inhibitory activity on trypsin IC50
T3 construct: a solution of 80 mU/ml trypsin (derived from bovine pancreas) (50 μl); from tissue; host or cells: bovine pancreas
T3 sequence (P00760 24-246): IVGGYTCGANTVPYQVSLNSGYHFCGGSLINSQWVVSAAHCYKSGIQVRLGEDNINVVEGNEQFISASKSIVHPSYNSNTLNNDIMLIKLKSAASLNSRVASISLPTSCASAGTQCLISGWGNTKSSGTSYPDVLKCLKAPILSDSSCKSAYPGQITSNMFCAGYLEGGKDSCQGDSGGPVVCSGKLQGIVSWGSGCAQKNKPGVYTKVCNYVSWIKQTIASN
Method: (2) Inhibitory Activity on Trypsin
To a mixture of a 0.2 M HEPES.sodium hydroxide buffer solution (pH 8.0, 100 μl) and distilled water (640 μl), were added a test compound in various concentration or water (10 μl), and a solution of 80 mU/ml trypsin (derived from bovine pancreas) (50 μl) and then the mixture was preincubated for one minute at 30° C. To the solution thus obtained was added 2.5 mM BAPNA (200 μl) and the mixture was incubated at 30° C. The absorbance at 405 nm was measured. Percentage (%) of the absorbance in the presence of a test compound was calculated when the absorbance in the absence thereof was regarded as 100%, and therefrom IC50 value was calculated.
HEPES represents 4-2-hydroxyethyl)-1-piperazineethanesulfonic acid, and
BAPNA represents α-N-benzoyl-DL-arginine-p-nitroanilide hydrochloride.

Structure (SMILES) | inhibition [1] [%] | IC50 [2] [nM] | IC50 [3] [nM]
C=CCN(CC(=O)OCC)C(=O)c1ccc(C(=O)Oc2ccc(/C=C/C(=N)N)cc2)cc1 [Example 2(i)] | 69.6 | 59000 | 140
CCOC(=O)CC[C@H](NC(=O)c1ccc(/C(C)=C/C(=O)Oc2ccc(C(=N)N)cc2)cc1)C(=O)OCC [Example 2(p)] | 95.2 | 29000 | 130

Stronger by IC50 [2], values ahead:

inhibition [1] [%] | IC50 [2] [nM] | IC50 [3] [nM] | Structure (SMILES)
97.9 | 3800 | 560 | N=C(N)C1=Cc2ccc(OC(=O)c3ccc(C(=O)N(CC(=O)OCc4ccccc4)c4ccccc4)cc3)cc2CC1 [Example 2(b)]
85.8 | 12000 | 140 | C=CCC(NC(=O)/C(C)=C/c1ccc(C(=O)Oc2ccc(C(=N)N)cc2)cc1)(C(=O)OCC)C(=O)OCC [Example 2(o)]
99.3 | 8700 | 140 | CCOC(=O)CN(C(=O)c1ccc(C(=O)Oc2ccc(/C=C/C(=N)N)cc2)cc1)c1ccccc1 [Example 2(d)]
